Consider six molecules from ChEMBL document CHEMBL4673397, “Dihydroorotate Dehydrogenase Inhibitors for Treating Acute Myelogenous Leukemia (AML)” (ACS Med Chem Lett, 2021).

For one test, the system named is MOLM-13. Briefly: Antiproliferative activity against human MOLM-13 cells assessed as reduction in cell viability measured after 72 hrs by Celltiter-Glo assay. It is filed as functional, cell-based. The note with it: MOLM-13, 72 h.
The target in test [1] is Dihydroorotate dehydrogenase (quinone), mitochondrial (Homo sapiens, UniProt Q02127). Briefly: Inhibition of human DHODH (30 to 390 residues) expressed in Escherichia coli using dihydroorotate as substrate and CoQ10 as co-substrate by DCIP dye based spectrophotometry analysis.
Sequence of Dihydroorotate dehydrogenase (quinone), mitochondrial (Q02127 whole entry, the tested form may be a part): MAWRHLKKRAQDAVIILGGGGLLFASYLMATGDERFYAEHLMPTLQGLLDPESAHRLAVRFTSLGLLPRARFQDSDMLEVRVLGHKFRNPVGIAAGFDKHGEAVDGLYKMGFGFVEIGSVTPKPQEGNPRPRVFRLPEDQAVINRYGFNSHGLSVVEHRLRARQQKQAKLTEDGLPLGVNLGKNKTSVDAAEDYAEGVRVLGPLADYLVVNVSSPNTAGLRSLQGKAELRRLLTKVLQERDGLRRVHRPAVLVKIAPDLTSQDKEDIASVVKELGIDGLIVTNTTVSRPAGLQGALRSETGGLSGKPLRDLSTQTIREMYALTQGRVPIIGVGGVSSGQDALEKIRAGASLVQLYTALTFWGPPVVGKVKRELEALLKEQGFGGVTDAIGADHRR

As for `CCn1c(CO)nn(-c2cc3c(C(C)C)cn(-c4ccccc4C)c(=O)c3cc2F)c1=O`, the IC50 in the test with MOLM-13 worked out at 0.2 nM. `CCn1c(CO)nn(-c2cc3c(C(C)C)cn(-c4c(F)cccc4Cl)c(=O)c3cc2F)c1=O`: the half-maximal inhibitory concentration (IC50) in the test with MOLM-13 was found to be 0.2 nM.

Consider `C=C(C)c1cn(-c2c(F)cccc2Cl)c(=O)c2cc(F)c(-n3nc(CO)n(CC)c3=O)cc12`, for which the IC50 in the test with MOLM-13 was 0.1 nM. Same read-out and setting: the result for `C=C(C)c1cn(-c2cc(F)ccc2C)c(=O)c2cc(F)c(-n3nc(CO)n(CC)c3=O)cc12` reads 0.09 nM; that for `C=C(C)c1cn(-c2c(F)ccc(OC)c2Cl)c(=O)c2cc(F)c(-n3nc(CO)n(CC)c3=O)cc12`, 0.1 nM.

Regarding `C=C(C)c1cn(-c2ccccc2F)c(=O)c2cc(F)c(-n3nc(CO)n(CC)c3=O)cc12`, the IC50 in the test on MOLM-13 was 0.3 nM; in test [1], < 0.169 nM.
